Here are results for 1 cell line from the supplement of paper PMC10307832.

Common to all, as to assay: relative viability (nuclei count vs DMSO), 5 days (fraction); higher = more cells survive
Compound in experiment [1]: C[C@@H](N)c1ccc(C(=O)Nc2ccnc3[nH]ccc23)cc1 + Cc1nc(NC(=O)N2CCC[C@H]2C(N)=O)sc1-c1ccnc(C(C)(C)C(F)(F)F)c1 [Alpelisib] (partner 2 µM)
A digest of the protocol: (§1)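 Lung cancer cell lines, seeded in 1536-well plates, were treated the following day by pin tool with a single drug or with five library-drug doses (not always all listed) in √10 steps on top of a fixed anchor-drug dose. Cells were fixed and nuclei stained in one step after 5 days, and nuclei were counted. Relative viability is the nuclei count for treated wells divided by that for vehicle wells, reported as medians of duplicate plates.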

Compound in experiment [2]: C[C@@H](N)c1ccc(C(=O)Nc2ccnc3[nH]ccc23)cc1 + CS(=O)(=O)CCNCc1ccc(-c2ccc3ncnc(Nc4ccc(OCc5cccc(F)c5)c(Cl)c4)c3c2)o1 [Lapatinib] (partner 2 µM)
A digest of the protocol: as §1

Compound in experiment [3]: C1CNCCC1C2=CC(=NN2)C3=CC=NC=C3 + C[C@@H](Oc1cc(-c2cnn(C3CCNCC3)c2)cnc1N)c1c(Cl)ccc(F)c1Cl [Crizotinib] (partner 1 µM)
A digest of the protocol: as §1

Compound in experiment [4]: C1CNCCC1C2=CC(=NN2)C3=CC=NC=C3 + CC1(C)CCC(c2ccc(Cl)cc2)=C(CN2CCN(c3ccc(C(=O)NS(=O)(=O)c4ccc(N[C@H](CCN5CCOCC5)CSc5ccccc5)c(S(=O)(=O)C(F)(F)F)c4)cc3)CC2)C1 [Navitoclax] (partner 0.5 µM)
A digest of the protocol:
as §1

Consider UMC-11, for which the relative viability in experiment [1] (first compound 0.04 µM) was determined as 1.12; in experiment [1] (first compound 0.1265 µM) it was 1.05; in experiment [1] (first compound 0.4 µM) it was 1.14; in experiment [1] (first compound 1.265 µM) it was 0.997; in experiment [1] (first compound 4 µM), 0.467; in experiment [2] (first compound 0.04 µM), 1.02. For the same cell line, the relative viability was 0.974 in experiment [2] (first compound 0.1265 µM); 1.05 in experiment [2] (first compound 0.4 µM); 0.459 in experiment [2] (first compound 1.265 µM); 0.812 in experiment [2] (first compound 4 µM); 0.69 in experiment [3] (first compound 0.08 µM); 0.577 in experiment [3] (first compound 0.8 µM). For the same cell line, the relative viability in experiment [3] (first compound 2.53 µM) is 0.713; in experiment [3] (first compound 8 µM), 0.63; in experiment [4] (first compound 0.08 µM), 0.3; in experiment [4] (first compound 0.8 µM), 0.344; in experiment [4] (first compound 2.53 µM), 0.321; in experiment [4] (first compound 8 µM), 0.355.
